These results are taken from patent publication US20240158446A1, “CYCLIC COMPOUND HAVING SELECTIVE INHIBITORY ACTION ON KRAS OVER HRAS AND NRAS” (CHUGAI SEIYAKU KABUSHIKI KAISHA, priority 2021, published 2024).

In general, Kd refers to a measure of binding affinity in units of concentration.

Where a SMILES comes first, the peptide text is derived from it. Bridges are numbered along the chain shown (N, C = ends). [ ]: non-standard residue; d: D form. The star is where a group is joined. hPhe(3-Cl-4-CF3) = N[C@@H](CCc1ccc(C(F)(F)F)c(Cl)c1)C(=O)O; NPrPhe(4-CF3) = CCCN[C@@H](Cc1ccc(C(F)(F)F)cc1)C(=O)O; NMeI = CC[C@H](C)[C@H](NC)C(=O)O; NMeD = CN[C@@H](CC(=O)O)C(=O)O; NMeL = CN[C@@H](CC(C)C)C(=O)O; Morpholide = C1CN(*)CCO1; Ac5c = NC1(C(=O)O)CCCC1; Sar = CNCC(=O)O

Experiment [1] has as its system human lung cancer strain NCI-H441. Description: cells. Particulars: NCI-H441, 96 h, read-out: NCI-H441 IC50 (nM), NCI-H441 cell proliferation, 4 days, CellTiter-Glo. For orientation: Cellular ATP, detected with luciferase, serves as a proxy for viable cell number.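 Also: cell proliferation inhibition after four days measured by CellTiter-Glo.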
Experiment [2] deals with GDP-bound KRAS wild-type protein (Homo sapiens, UniProt P01116). In words: Binding to KRAS by surface plasmon resonance (SPR), Single Cycle Kinetics. Particulars: SPR, Single Cycle Kinetics, GDP-bound KRAS wild-type protein; read-out: KRAS KD. For orientation: Surface plasmon resonance follows binding to a sensor surface in real time, without labels.
Chain of GDP-bound KRAS wild-type protein (P01116 whole entry): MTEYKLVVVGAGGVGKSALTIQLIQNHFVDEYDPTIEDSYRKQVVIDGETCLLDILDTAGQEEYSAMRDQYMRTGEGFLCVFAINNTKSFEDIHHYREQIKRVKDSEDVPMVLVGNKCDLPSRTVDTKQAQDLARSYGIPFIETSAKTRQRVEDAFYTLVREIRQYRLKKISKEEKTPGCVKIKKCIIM
Experiment [3] concerns the target GDP-bound NRAS wild-type protein (Homo sapiens, UniProt P01111). Description: Binding to NRAS by surface plasmon resonance (SPR), Single Cycle Kinetics. Particulars: ratio of KD for GDP-bound NRAS wild-type protein to KD for KRAS, SPR.
For experiment [4], the target named is GDP-bound HRAS wild-type protein (Homo sapiens, UniProt P01112). In words: Binding to HRAS by surface plasmon resonance (SPR), Single Cycle Kinetics. The following applies: ratio of KD for GDP-bound HRAS wild-type protein to KD for KRAS, SPR.
Chain of GDP-bound HRAS wild-type protein (P01112 whole entry): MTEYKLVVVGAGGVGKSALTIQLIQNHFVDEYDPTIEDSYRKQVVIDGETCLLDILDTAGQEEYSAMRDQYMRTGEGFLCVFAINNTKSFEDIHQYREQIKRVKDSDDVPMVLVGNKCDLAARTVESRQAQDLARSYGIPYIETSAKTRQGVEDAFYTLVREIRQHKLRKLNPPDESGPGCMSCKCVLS

Chain of GDP-bound NRAS wild-type protein (P01111 whole entry): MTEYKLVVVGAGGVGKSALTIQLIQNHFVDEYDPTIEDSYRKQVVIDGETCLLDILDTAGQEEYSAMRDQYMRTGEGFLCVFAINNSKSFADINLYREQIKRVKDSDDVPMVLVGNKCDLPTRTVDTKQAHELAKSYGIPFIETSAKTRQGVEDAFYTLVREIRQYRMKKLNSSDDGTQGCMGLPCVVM

`CCCN(C)C(=O)[C@@H]1CC(=O)N(C)[C@@H](C)C(=O)N[C@@H]([C@@H](C)CC)C(=O)N(C)CC(=O)N(C)[C@H]2C/C=C\CCN(C2=O)[C@@H](Cc2ccc(C(F)(F)F)cc2)C(=O)N(C)CC(=O)N[C@@H](CCc2cc(F)c(C(F)(F)F)c(F)c2)C(=O)N2C[C@H](OCC)C[C@H]2C(=O)NC2(CC(F)(F)C2)C(=O)N(C)[C@@H](C2CCCC2)C(=O)N1C` [PP1731]: the IC50 in experiment [1] was determined as 7.4 nM. For the same molecule, in experiment [2], the dissociation constant Kd is 0.07 nM. For the same molecule, in experiment [3], the “NRAS/KRAS (KD ratio)” value was “A (a compound having 10 or more and less than 20 is denoted as A)”. Besides, the “HRAS/KRAS (KD ratio)” value in experiment [4] is “A (a compound having 10 or more and less than 20 is denoted as A)”.

Consider `CCCOC[C@H]1C(=O)N[C@@H]([C@@H](C)CC)C(=O)N(C)CC(=O)N(C)[C@H]2C/C=C\CCN(C2=O)[C@@H](Cc2ccc(C(F)(F)F)cc2)C(=O)N(C)CC(=O)N[C@@H](CCc2cc(F)c(C(F)(F)F)c(F)c2)C(=O)N2C[C@H](F)C[C@H]2C(=O)NC2(CC(C)(C)C2)C(=O)N(C)[C@@H](C2CCCC2)C(=O)N(C)[C@H](C(=O)N(C)CC)CC(=O)N1C` [PP1697], for which the IC50 in experiment [1] amounted to 3.6 nM. In addition, the Kd in experiment [2] was found to be 0.047 nM. Besides, the “NRAS/KRAS (KD ratio)” value in experiment [3] was “A (a compound having 10 or more and less than 20 is denoted as A)”. Moreover, the “HRAS/KRAS (KD ratio)” value in experiment [4] is “A (a compound having 10 or more and less than 20 is denoted as A)”.

As for `CCC[C@H]1C(=O)N[C@@H]([C@@H](C)CC)C(=O)N(C)CC(=O)N(C)[C@H]2C/C=C\CCN(C2=O)[C@@H](Cc2ccc(C)cc2)C(=O)N(C)CC(=O)N[C@@H](CCc2ccc(C(F)(F)F)c(OC)c2)C(=O)N2C[C@@H](C)C[C@H]2C(=O)NC2(CC(C)(C)C2)C(=O)N(C)[C@@H](C2CCCC2)C(=O)N(C)[C@H](C(=O)N(C)CC)CC(=O)N1C` [PP1889], the IC50 in experiment [1] turned out to be 12.5 nM. The Kd in experiment [2] turned out to be 0.21 nM. Also, the “NRAS/KRAS (KD ratio)” value in experiment [3] is “A (a compound having 10 or more and less than 20 is denoted as A)”. Further, in experiment [4], the “HRAS/KRAS (KD ratio)” value was “B (a compound having 3 or more and less than 10 is denoted as B)”.

With `CCCN1C(=O)CN(C)C(=O)CN(C)C(=O)[C@H]([C@@H](C)CC)NC(=O)[C@H](CC(C)C)N(C)C(=O)C[C@@H](C(=O)N2CCOCC2)N(C)C(=O)[C@H]([C@@H](C)CC)N(C)C(=O)C2(CCCC2)NC(=O)[C@@H]2CCCN2C(=O)[C@H](CCc2ccc(C(F)(F)F)c(Cl)c2)NC(=O)CN(C)C(=O)[C@@H]1Cc1ccc(C(F)(F)F)cc1` [PP1926] ([NMeL]I[Sar][Sar][NPrPhe(4-CF3)][Sar][hPhe(3-Cl-4-CF3)]P[Ac5c][NMeI][NMeD]-Morpholide; lactam N-11), the IC50 in experiment [1] amounted to 17.4 nM. The Kd in experiment [2] amounted to 0.36 nM. Further, in experiment [3], the “NRAS/KRAS (KD ratio)” value is “B (a compound having 3 or more and less than 10 is denoted as B)”. Besides, in experiment [4], the “HRAS/KRAS (KD ratio)” value was “B (a compound having 3 or more and less than 10 is denoted as B)”.

For the molecule `CCCN(C)C(=O)[C@@H]1CC(=O)N(C)[C@@H](CC(F)F)C(=O)N[C@@H]([C@@H](C)CC)C(=O)N(C)CC(=O)N(C)[C@H]2C/C=C\CCN(C2=O)[C@@H](Cc2ccc(C(F)(F)F)cc2)C(=O)N(C)CC(=O)N[C@@H](CCc2cc(F)c(C(F)(F)F)c(F)c2)C(=O)N2C[C@H](F)C[C@H]2C(=O)NC2(CC(C)(C)C2)C(=O)N(C)[C@@H](C2CCCC2)C(=O)N1C` [PP1687], the IC50 in experiment [1] turned out to be 2.7 nM. The Kd in experiment [2] came to 0.075 nM. Moreover, the “NRAS/KRAS (KD ratio)” value in experiment [3] was “A (a compound having 10 or more and less than 20 is denoted as A)”. The “HRAS/KRAS (KD ratio)” value in experiment [4] was “A (a compound having 10 or more and less than 20 is denoted as A)”.

Regarding `CCO[C@@H]1C[C@H]2C(=O)NC3(CC(C)(C)C3)C(=O)N(C)[C@@H](C3CCCC3)C(=O)N(C)[C@H](C(=O)N(C)CC)CC(=O)N(C)[C@@H](CC3CC3)C(=O)N[C@@H]([C@@H](C)CC)C(=O)N(C)CC(=O)N(C)[C@H]3C/C=C\CCN(C3=O)[C@@H](Cc3ccc(C(F)(F)F)cc3)C(=O)N(C)CC(=O)N[C@@H](CCc3ccc(C(F)(F)F)c(OC)c3)C(=O)N2C1` [PP1678], the IC50 in experiment [1] turned out to be 5.6 nM. The Kd in experiment [2] was determined as 0.17 nM. The “NRAS/KRAS (KD ratio)” value in experiment [3] is “A (a compound having 10 or more and less than 20 is denoted as A)”. Moreover, in experiment [4], the “HRAS/KRAS (KD ratio)” value was “B (a compound having 3 or more and less than 10 is denoted as B)”.

For `CC[C@H](C)[C@@H]1NC(=O)[C@H](CC)N(C)C(=O)C[C@@H](C(=O)N(C)CC)N(C)C(=O)[C@H](C2CCCC2)N(C)C(=O)C2(CCC2)NC(=O)[C@@H]2C[C@@H](C)CN2C(=O)[C@H](CCc2ccc(C(F)(F)F)c(OC)c2)NC(=O)CN(C)C(=O)[C@H](Cc2ccc(C)cc2)N2CC/C=C\C[C@@H](C2=O)N(C)C(=O)CN(C)C1=O` [PP1855], in experiment [1], the IC50 is 17.7 nM. In addition, the Kd in experiment [2] is 0.19 nM. Also, the “NRAS/KRAS (KD ratio)” value in experiment [3] is “AA (a compound having 20 or more is denoted as AA)”. Moreover, the “HRAS/KRAS (KD ratio)” value in experiment [4] is “A (a compound having 10 or more and less than 20 is denoted as A)”.

Consider `CC[C@H](C)[C@@H]1NC(=O)[C@H](CC(F)(F)F)N(C)C(=O)C[C@@H](C(=O)N(C)C)N(C)C(=O)[C@H](C2CCCC2)N(C)C(=O)C2(CC(C)(C)C2)NC(=O)[C@@H]2C[C@@H](F)CN2C(=O)[C@H](CCc2cc(F)c(C(F)(F)F)c(F)c2)NC(=O)CN(C)C(=O)[C@H](Cc2ccc(C(F)(F)F)cc2)N2CC/C=C\C[C@@H](C2=O)N(C)C(=O)CN(C)C1=O` [PP1688], for which the IC50 in experiment [1] was found to be 1.5 nM. Also, in experiment [2], the Kd is 0.025 nM. In addition, in experiment [3], the “NRAS/KRAS (KD ratio)” value was “A (a compound having 10 or more and less than 20 is denoted as A)”. In addition, in experiment [4], the “HRAS/KRAS (KD ratio)” value is “A (a compound having 10 or more and less than 20 is denoted as A)”.

For the molecule `CCO[C@@H]1C[C@H]2C(=O)NC3(CCC3)C(=O)N(C)[C@@H](C3CCCC3)C(=O)N(C)[C@H](C(=O)N(C)CC)CC(=O)N(C)[C@@H](C(C)C)C(=O)N[C@@H]([C@@H](C)CC)C(=O)N(C)CC(=O)N(C)[C@H]3C/C=C\CCN(C3=O)[C@@H](Cc3ccc(C(F)(F)F)cc3)C(=O)N(C)CC(=O)N[C@@H](CCc3cc(F)c(C(F)(F)F)c(F)c3)C(=O)N2C1` [PP1990], the IC50 in experiment [1] worked out at 6.6 nM. In experiment [2], the Kd was determined as 0.14 nM. Moreover, the “NRAS/KRAS (KD ratio)” value in experiment [3] was “A (a compound having 10 or more and less than 20 is denoted as A)”. The “HRAS/KRAS (KD ratio)” value in experiment [4] is “A (a compound having 10 or more and less than 20 is denoted as A)”.

Turning to `CCO[C@@H]1C[C@H]2C(=O)NC3(CC(C)(C)C3)C(=O)N(C)[C@@H](C3CCCC3)C(=O)N(C)[C@H](C(=O)N(C)C)CC(=O)N(C)[C@@H](C3CCC3)C(=O)N[C@@H]([C@@H](C)CC)C(=O)N(C)CC(=O)N(C)[C@H]3C/C=C\CCN(C3=O)[C@@H](Cc3ccc(C(F)(F)F)cc3)C(=O)N(C)CC(=O)N[C@@H](CCc3ccc(C(F)(F)F)c(OC)c3)C(=O)N2C1` [PP1987], the IC50 in experiment [1] worked out at 6.6 nM. Further, the Kd in experiment [2] came out at 0.053 nM. Further, the “NRAS/KRAS (KD ratio)” value in experiment [3] is “A (a compound having 10 or more and less than 20 is denoted as A)”. Moreover, the “HRAS/KRAS (KD ratio)” value in experiment [4] was “A (a compound having 10 or more and less than 20 is denoted as A)”.

For `CC[C@H](C)[C@@H]1NC(=O)[C@H](C2CC2)N(C)C(=O)C[C@@H](C(=O)N(C)C)N(C)C(=O)[C@H](C2CCCC2)N(C)C(=O)C2(CCC2)N(C)C(=O)[C@@H]2CCCN2C(=O)[C@H](CCc2cc(F)c(C(F)(F)F)c(F)c2)NC(=O)CN(C)C(=O)[C@H](Cc2ccc(C)cc2)N2CC/C=C\C[C@@H](C2=O)N(C)C(=O)CN(C)C1=O` [PP1784], the IC50 in experiment [1] was determined as 7.8 nM. In addition, in experiment [2], the Kd came to 0.083 nM. For the same molecule, in experiment [3], the “NRAS/KRAS (KD ratio)” value was “A (a compound having 10 or more and less than 20 is denoted as A)”. Also, the “HRAS/KRAS (KD ratio)” value in experiment [4] was “B (a compound having 3 or more and less than 10 is denoted as B)”.
